Entries after “also recorded” stand apart in the source; their conditions may differ.
Columns and labels:
[1] = tested on: LNCaP prostate cancer cells; test: NK cell CD107a / IFNγ flow cytometry against LNCaP; type: cell-based, human; conditions: normal donor and prostate cancer patient NK cells, vs controls
Description: FIG. 15A is a graph showing pooled analysis of proportion of NK cells from healthy donors or prostate cancer patients expressing CD107a+ (top) or IFNγ (bottom) against C4-2 targets (N=9 for healthy donors, N=3 for patients). FIG. 15B is a graph showing pooled analysis of proportion of NK cells from healthy donors or prostate cancer patients expressing CD107a+ (top) or IFNγ (bottom) against DU145 targets (N=9 for healthy donors, N=3 for patients). FIG. 15C is a graph showing pooled analysis of proportion of NK cells from healthy donors or prostate cancer patients expressing CD107a+ (top) or IFNγ (bottom) against LNCaP targets (N=9 for healthy donors, N=3 for patients). FIG. 15D is a graph showing pooled analysis of proportion of NK cells from healthy donors or prostate cancer patients expressing CD107a+ (top) or IFNγ (bottom) against PC3 targets (N=9 for healthy donors, N=3 for patients). * p<0.05, ** p<0.01, *** p<0.001, and **** p<0.0001.
ADCC was measured in a flow cytometry assay by evaluating degranulation via CD107a (lysosomal-associated membrane protein LAMP-1) and intracellular IFNγ production. Upon thawing, normal donor and patient-derived PBMCs or ascites cells were rested overnight (37° C., 5% CO2) in RPMI 1640 media supplemented with 10% fetal calf serum (RPMI-10). […] Samples were washed and evaluated in an LSRII flow cytometer (BD Biosciences, San Jose, CA, USA). […]

T cells (CD56−CD3+) = test: T cell proliferation in PBMCs, CellTrace Violet dilution; type: cell-based, human; conditions: 7 days
Procedure: FIGS. 2A-2H illustrates that cam1615B7-H3 TriKE induces potent, and specific, natural killer (NK) cell proliferation. Peripheral blood mononuclear cells (PBMCs) were CellTrace Violet labeled and incubated for seven days at 5 nM equimolar concentrations of rhIL-15 or cam1615B7-H3 TriKE. On day 7, the cells were harvested and stained for flow cytometric evaluation. […] FIG. 2B is a graph illustrating pooled data showing the overall proportion of NK cells that proliferated. FIG. 2C is a graph illustrating pooled data showing the proportion of NK cells that highly proliferated (measured as proliferation beyond three divisions). FIG. 2D is a graph illustrating pooled data showing NK cell counts in the cultures (N=9). FIG. 2E is a representative histogram showing T cell (CD56− CD3+) proliferation. FIG. 2F is a graph illustrating pooled data showing the overall proportion of T cells proliferated. FIG. 2G is a graph illustrating pooled data showing the proportion of T cells highly proliferated. FIG. 2H is a graph illustrating pooled data showing T cell counts in the cultures (N=9). * p<0.05, ** p<0.01, *** p<0.001.
The wild-type IL-15 moiety in the cam1615B7-H3 TriKE was designed to induce targeted delivery of a proliferative signal to NK cells. To test this, proliferation assays evaluating dilution of a CellTrace dye over a 7-day period were carried out on PBMCs treated with no treatment (NT), monomeric rhIL-15 (IL15), or the TriKE (cam1615B7-H3). At the end of the seven days, cells were harvested and proliferation was evaluated by gating on CD56+CD3− cells. […] Since IL-15 acts on both NK cells and T cells, specificity was evaluated next by gating on T cells (CD56-CD3+).
To measure the ability of the TriKE to specifically induce NK cell expansion via the IL-15 moiety, PBMCs from healthy donors were labeled with CellTrace Violet Proliferation Dye (Invitrogen, Carlsbad, CA, USA) according to kit specifications. After staining, cells were cultured with TriKEs at noted concentrations, or equimolar concentrations of controls, and incubated in a humidified atmosphere containing 5% CO2 at 37° C. for seven days. Cells were harvested, stained for viability with Live/Dead reagent (Invitrogen, Carlsbad, CA, USA) and surface stained for anti-CD56 PE/Cy7 (Biolegend, San Diego, CA, USA) and anti-CD3 PE-CF594 (BD Biosciences, Franklin Lakes, NJ, USA) to gate on the viable CD56+ CD3− NK cell population or the CD56-CD3+ T cell population. Data analysis was performed using FlowJo software (FlowJo LCC, version 7.6.5, Ashland, OR, USA).

Q: Which “NK cell IFNγ production against LNCaP” value [1] does the source give for “cam1615B7-H3: second-generation TriKE: humanized camelid anti-CD16 VHH, human wild-type IL-15, anti-B7-H3 mAb 376.96 scFv; SEQ ID NO:1” here?
A: enhanced

Q: What about the “NK cell degranulation (CD107a) against LNCaP” value [1] of the same substance?
A: enhanced

Q: What about the “overall T cell proliferation” value (T cells (CD56−CD3+); 5 nM equimolar, listed as cam1615B7-H3 TriKE) of the same substance?
A: Minimal T cell proliferation; also recorded: some induction of overall T cell proliferation

Q: And the “T cell numbers in culture” value (T cells (CD56−CD3+); 5 nM, vs untreated)?
A: did not differ between the untreated and TriKE-treated groups

Q: What about the “T cells robustly proliferating (past three divisions)” value (T cells (CD56−CD3+); 5 nM, vs untreated) of the same substance?
A: significantly less proliferation than the untreated group

Reference: patent publication US20250145715A1, “B7-H3 TARGETING FUSION PROTEINS AND METHODS OF USE THEREOF” (GT Biopharma, Inc., priority 2021, published 2025)
